Reference: US20060229290A1, “Staurosporine derivatives for hypereosinophilic syndrome” (priority 2003, published 2006)
Read-outs that look alike come from different tables or passages of the source.

Legend:
FIP1L1-PDGFRα wild type = target: T1, FIP1L1-PDGFRα wild type (Homo sapiens, UniProt P16234); assay: Bone marrow transplant model of FIP1L1-PDGFRα-induced myeloproliferative disease; assay type: in vivo, Balb/c mice; conditions: at time of death or trial endpoint
T1 construct: FIP1L1 (N-terminal part of FIP1-like 1, Q6UN15); expressed in transfected cells; host or cells: Bone marrow cells retrovirally transduced with MSCV-FIP1L1-PDGFRα-ires-EGFP and transplanted into Balb/c mice; the other entry of the earlier key: FIP1L1 (Q6UN15, Pre-mRNA 3'-end-processing factor FIP1)
Method: (§1) The retroviral construct MSCV-FIP1L1-PDGFRα-ires-EGFP and the corresponding T674I mutant were described previously (Cools et al., New England Journal of Medicine Vol. 348 No. 13, p 1201-1214 2003). The N659D mutation was introduced by PCR (polymerase chain reaction).
(§2) Balb/c mice were purchased from Taconic (Germantown, N.Y.). Bone marrow transplant assays (injecting 1×10^6 cells per recipient mouse) and drug treatment of the mice was performed as described previously (Schwaller et al., 1998; Kelly et al.; Weisberg et al., 2002). Imatinib (stored as powder at 4° C.) was resuspended in a 0.5% methylcellulose (MC) solution in water prior to use. PKC412 (6% w/w in Gelucire® 44/14 (GC) (Gattefosse,France)) was stored at 4° C. as a waxy-solid formulation. Prior to administration, the GC/PKC412 waxy solid mixture was melted in a 44° C. water bath and diluted with sterilized deionized water. The animals were weighed at regular basis to ensure that a consistent dose (150 mg/kg/day for imatinib and 100 mg/kg/day for PKC412) of drug was administered. Dosing was performed every 12 hr for imatinib and every 24 hr for PKC412 by oral gavage of a maximum volume of 150 μl per animal using 22 gauge gavage needles (Hornbecks). Placebo animals received the same volume of a MC or GC solution. Any animals with splenomegaly (spleen boundary detectable at the dorsal medline) or that were moribund were sacrificed and analysed for signs of hematological disease. Peripheral blood was collected from the retroorbital cavity using a heparinized glass capillary. Blood smears were stained with Wright and Giemsa. Manual and automated (ADIVA 120 Hematology system, Bayer) total and differential blood cell counts were performed. Histopathologic exam of relevant organs (spleen, liver, heart, lungs, Intestine, hindlimb bones, and kidneys) and preparation of single-cell suspensions from spleen and bone marrow for flow cytometry was performed as described. In comparing the survival time of the mice, all times are measured from the day of BMT (bone marrow transplant), and the log rank test is used to attach a significance level to the difference in the survival curve.

FIP1L1-PDGFRαT674I = assay type: in vivo, Balb/c mice; conditions: at time of death or trial endpoint
Method: as §1, §2

[1] = trial 1, FIP1L1-PDGFRα wild type, imatinib 150 mg/kg/day oral gavage
[2] = trial 2, FIP1L1-PDGFRα, imatinib 150 mg/kg/day, PKC412 100 mg/kg/day, oral gavage
[3] = trial 1, FIP1L1-PDGFRαT674I, imatinib 150 mg/kg/day oral gavage
[4] = trial 2, FIP1L1-PDGFRα T674I, imatinib 150 mg/kg/day, PKC412 100 mg/kg/day, oral gavage

T1 sequence (P16234 593-1089 limits assumed): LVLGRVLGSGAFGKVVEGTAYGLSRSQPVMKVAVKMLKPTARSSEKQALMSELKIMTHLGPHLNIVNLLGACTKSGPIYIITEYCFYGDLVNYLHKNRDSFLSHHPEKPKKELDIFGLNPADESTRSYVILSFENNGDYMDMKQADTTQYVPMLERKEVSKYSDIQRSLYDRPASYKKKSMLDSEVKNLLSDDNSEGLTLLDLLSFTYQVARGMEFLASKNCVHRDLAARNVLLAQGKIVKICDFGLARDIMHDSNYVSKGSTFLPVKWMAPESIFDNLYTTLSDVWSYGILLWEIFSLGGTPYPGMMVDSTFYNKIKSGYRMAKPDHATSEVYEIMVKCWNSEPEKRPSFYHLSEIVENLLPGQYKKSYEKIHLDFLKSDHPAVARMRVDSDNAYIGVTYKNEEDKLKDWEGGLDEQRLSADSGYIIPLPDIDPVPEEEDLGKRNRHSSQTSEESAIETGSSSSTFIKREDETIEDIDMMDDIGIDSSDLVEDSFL

## Cc1ccc(NC(=O)c2ccc(CN3CCN(C)CC3)cc2)cc1Nc1nccc(-c2cccnc2)n1 [imatinib]
FIP1L1-PDGFRα wild type; [1]
  WBC, mean: 6e+06 mL⁻¹
  WBC, median: 5.2e+06 mL⁻¹
  WBC, range: 4.6-9.4 ×10^6/ml
FIP1L1-PDGFRα wild type; [2]
  WBC, mean: 4.8e+06 mL⁻¹
  WBC, median: 4.8e+06 mL⁻¹
  WBC, range: 4.4-5.3 ×10^6/ml
FIP1L1-PDGFRαT674I; [3]
  WBC, mean: 4.965e+08 mL⁻¹
  WBC, median: 5.077e+08 mL⁻¹
  WBC, range: 434.6-535.8 ×10^6/ml
FIP1L1-PDGFRαT674I; [4]
  WBC, mean: 5.482e+08 mL⁻¹
  WBC, median: 5.915e+08 mL⁻¹
  WBC, range: 364.9-657.6 ×10^6/ml
